These results are taken from PMC5958115, “A novel small molecule chaperone of rod opsin and its potential therapy for retinal degeneration” (Nature Communications, 2018).

One series addresses T1, ovine COX-1 (Ovis aries, UniProt P05979).
T1 construct: purchased Abcam
Briefly: COX-1 activity assay (fluorometric). The series is classed as biochemical. Particulars: up to 80 µM. On the procedure:
The effect of the compound YC-001 on COX-1 activity was evaluated using the COX-1 Inhibitor Screening Kit (Abcam, Cambridge, MA, USA) according to the manufacture’s protocol. Briefly, the assay is based on the fluorometric detection of Prostaglandin G2, the intermediate product generated by the COX-1 enzyme. COX reaction mix included ovine COX-1, COX probe, and COX cofactor was prepared in a 96-well plate. YC-001 working solutions were dissolved in DMSO, and then mixed with COX Reaction Mix to the final concentrations (80, 40, 20, 10, 5, 2.5, 1.25, 0.625, 0.312, 0.156, 0.078 and 0.039 µM). Equivalent volume of DMSO was used as vehicle control and SC560 was used as a positive control. All controls and samples were measured in triplicate. Then arachidonic acid was added into each well to initiate all the reactions at the same time. The fluorescence was measured at Ex/Em = 535/587 nm in a kinetic mode for 15 min at 25 °C. Five time points were chosen in the linear range of the plot and the corresponding values for the fluorescence were used to calculate the slope of the linear regression equation. Relative COX-1 activity was calculated as Eq. 5: RelativeCOX-1Activity(%)=Slopeofsample/Slopeofenzymecontrol×100 .

The next series concerns C57BL/6 mice. As to the kind of experiment: Toxicity by daily i.p. injections, survival, behavior and body weight. Format: in vivo. Particulars: 200 and 100 mg kg^−1 bw daily i.p., day 14 to 38, vs DMSO. On the procedure:
To estimate the long-term toxicity of YC-001 in mice, we administered YC-001 to C57BL/6 mice by daily i.p. injections from Day 14 to 38 after birth with one of two doses, either 100 mg kg^−1 or 200 mg kg^−1 bw. Equivalent volumes of DMSO were injected into control groups. Body weights of treated mice were measured daily. Each dosage group contained three mice including males and females.

T1 sequence (P05979 25-600): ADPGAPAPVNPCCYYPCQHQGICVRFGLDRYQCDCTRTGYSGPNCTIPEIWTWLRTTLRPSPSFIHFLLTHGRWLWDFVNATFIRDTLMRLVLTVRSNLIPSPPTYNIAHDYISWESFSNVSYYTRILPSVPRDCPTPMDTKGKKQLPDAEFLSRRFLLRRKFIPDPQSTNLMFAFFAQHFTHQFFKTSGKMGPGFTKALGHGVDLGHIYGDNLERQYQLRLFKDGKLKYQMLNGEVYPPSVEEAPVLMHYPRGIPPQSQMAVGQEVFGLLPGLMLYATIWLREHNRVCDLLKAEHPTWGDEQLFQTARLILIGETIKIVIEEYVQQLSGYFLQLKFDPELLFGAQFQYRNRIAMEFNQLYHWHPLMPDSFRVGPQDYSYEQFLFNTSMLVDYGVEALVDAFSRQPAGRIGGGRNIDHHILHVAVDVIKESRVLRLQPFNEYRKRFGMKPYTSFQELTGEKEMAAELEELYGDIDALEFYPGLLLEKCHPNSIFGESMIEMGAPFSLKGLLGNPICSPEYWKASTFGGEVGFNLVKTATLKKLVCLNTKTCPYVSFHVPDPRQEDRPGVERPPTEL

In the case of `O=C1OCC(c2ccc(Cl)s2)=C1c1cccs1` [YC-001], the COX-1 enzymatic activity entry on ovine COX-1 is recorded as “did not see changes”. For the same compound, the “behavioral or bw growth changes” value in the series on C57BL/6 mice was “no obvious behavioral or bw growth changes”.
